The values below come from US12150939B2, “Therapeutic drug for ectopic ossification having mechanism to inhibit PAR1” (NATIONAL UNIVERSITY CORPORATION KUMAMOTO UNIVERSITY, priority 2015, dated 2024).

The subject of test [1] is FOP-derived fibroblasts. The test is described as follows: Differentiation of FOP-derived fibroblasts to osteoblasts in the absence of serum when using each inhibitor (ALP immunostaining and ALP activity). The format is cell-based, human. The settings on record: BMP6 and TFLLR stimulation.
A further test concerns NOG mice. Kind of test: Ectopic ossification in teratomas from FOP patient iPS cells implanted into testicle of NOG mice, PAR1 inhibitor (CT). The format is in vivo. Conditions: 0.2 mg/kg/day intraperitoneally once daily from 9 weeks after implantation.
Test [2] relates to FOP-derived fibroblasts. Kind of test: Differentiation of FOP-derived fibroblasts to osteoblasts by BMP6 / TFLLR stimulation in the absence of serum (ALP immunostaining and ALP activity). The format is cell-based, human. The settings on record: single stimulus. The protocol:
(§1) • (1) Fibroblasts were created from skin biopsy explants from FOP patients and normal subjects under informed consent by a protocol approved by Ethics committee. • (2) Skin samples from patients and from normal subjects were finely cut and cultured in DMEM medium supplemented with 10% fetal bovine serum (FBS). • (3) After emergence of fibroblasts was observed, the fibroblasts were grown to introduce a reprogramming gene. The grown fibroblasts were then put in a solution for freezing containing 10% DMSO+90% FBS and cryopreserved. <2. […] Intensity of bands was evaluated by Image J software (NIH, USA). • (4) In immunoprecipitation, 293T cells in which Smads were overexpressed, and KDM6B or LSD1 were lysed in RIPA buffer (50 mM Tris-HCl, pH 7.4, 1 mM EDTA, 150 mM NaCl, 1% NP-40, protease/phosphatase inhibitor cocktail). […]

The subject of test [3] is FOP-derived fibroblasts. The test is described as follows: PAR1 mRNA expression by BMP6 stimulation in the presence of serum (qPCR), FOP-derived fibroblasts. Conditions: BMP6 50 ng/mL, over time, compared to normal subject-derived fibroblasts. The format is cell-based, human. The method, then: as §1
In general terms: In qPCR the cycle at which signal appears reflects the starting amount.

Test [4] concerns normal subject-derived fibroblasts. Kind of test: PAR1 mRNA expression by BMP6 stimulation in the presence of serum (qPCR), normal subject-derived fibroblasts. The format is cell-based, human. Conditions: BMP6 50 ng/mL, over time. The protocol:
as §1

As to `CCOC(=O)N[C@@H]1CC[C@@H]2[C@@H](C1)C[C@H]1C(=O)O[C@H](C)[C@H]1[C@H]2/C=C/c1ccc(-c2cccc(F)c2)cn1` [Vorapaxar, ethyl [(1R,3aR,4aR,6R,8aR,9S,9aS)-9-{(1E)-2-[5-(3-fluorophenyl)pyridin-2-yl]ethen-1-yl}-1-methyl-3-oxododecahydronaphtho[2,3-c]furan-6-yl]carbamate], in the test with FOP-derived fibroblasts [1] (1 μM), the ALP activity result is reported as “largely decreased” and the “ALP expression (immunostaining)” value was “largely decreased”. In the test on NOG mice, the “bone volume in the teratomas relative to vehicle” value was “about one third” and the “teratoma volume calculated from CT images versus vehicle” value is “a significant difference in the teratoma volume was not observed”. Moreover, in the test with NOG mice (after 2 weeks of administration), the “bones found in the teratomas (CT images) versus vehicle” value is recorded as “notably less”.

With `CC(C)c1ccc(Cn2ccc3c4c(N)nc(NC5CC5)nc4ccc32)cc1` [SCH79797, N3-cyclopropyl-7-[[4-(1-methylethyl)phenyl]methyl]-7H-pyrrolo[3,2-f]quinazoline-1,3-diamine], in the test on FOP-derived fibroblasts [1] (200 nM), the ALP activity entry is given as “largely decreased” and the “ALP expression (immunostaining)” value is recorded as “largely decreased”.

B1: BMP6: bone morphogenetic protein used as osteogenic stimulus (protein, UniProt P22004 375-513, looked up)
Bone morphogenetic protein 6: SASSRRRQQSRNRSTQSQDVARVSSASDYNSSELKTACRKHELYVSFQDLGWQDWIIAPKGYAANYCDGECSFPLNAHMNATNHAIVQTLVHLMNPEYVPKPCCAPTKLNAISVLYFDDNSNVILKKYRNMVVRACGCH
For the molecule B1, the “ALP activity compared to control” value with FOP-derived fibroblasts [2] is “significantly increased”. Also, in the test on FOP-derived fibroblasts [2], the “ALP expression (immunostaining)” value is “observed”. Moreover, the figures for the “mRNA expression level of PAR1” value (in the test with FOP-derived fibroblasts [3]; in test [4]) were “remarkable increase” and “significantly increased”, respectively.
